Experimental data from US9676784B2, “Fused imidazolyl derivatives, their preparation and use as medicaments” (LABORATORIOS DEL DR. ESTEVE S.A., priority 2013, dated 2017).
Where a name gives a salt, the structure may show the parent alone.

Molecular target: σ1-receptor (Cavia porcellus, UniProt Q60492)
Assay: Binding assay for the σ1-receptor, [3H]-(+)-pentazocine, guinea pig brain membranes
Experimental: Guinea pig brains were homogenized in 10 vols. (w/v) of Tris-HCl 50 mM 0.32 M sucrose, pH 7.4, with a Kinematica Polytron PT 3000 at 15000 r.p.m. for 30 s. The homogenate was centrifuged at 1000 g for 10 min at 4° C. and the supernatants collected and centrifuged again at 48000 g for 15 min at 4° C. The pellet was resuspended in 10 volumes of Tris-HCl buffer (50 mM, pH 7.4), incubated at 37° C. for 30 min, and centrifuged at 48000 g for 20 min at 4° C. Following this, the pellet was re-suspended in fresh Tris-HCl buffer (50 mM, pH 7.4) and stored on ice until use.
The radioligand used was [^3H]-(+)-pentazocine at 5.0 nM and the final volume was 200 μl. The incubation was initiated with the addition of 100 μl of membrane at a final tissue concentration of approximately 5 mg tissue net weight/mL and the incubation time was 150 m. at 37° C. After incubation, the membranes were collected onto pretreated glass fiber filterplate (MultiScreen-FC, Millipore), with polyethylenimine 0.1%. […] Nonspecific binding was determined with 1 μM haloperidol.

σ1-receptor, sequence (Q60492 whole entry): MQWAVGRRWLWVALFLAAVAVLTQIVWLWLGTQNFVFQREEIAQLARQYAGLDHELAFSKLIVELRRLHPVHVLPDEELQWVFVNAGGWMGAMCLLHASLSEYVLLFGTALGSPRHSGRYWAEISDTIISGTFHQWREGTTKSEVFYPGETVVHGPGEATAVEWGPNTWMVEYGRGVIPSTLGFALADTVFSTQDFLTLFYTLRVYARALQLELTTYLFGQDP

Row | Compound | Ki [nM]
1 | Fc1ccc(Nc2ncc3n2CCN(Cc2ccc(F)nc2)C3)cc1 [Example 38, N-(4-fluorophenyl)-7-((6-fluoropyridin-3-yl)methyl)-5,6,7,8-tetrahydroimidazo[1,5-a]pyrazin-3-amine] | 311
2 | CCC(=O)N(c1cccc(O)c1)c1ncc2n1CCN(Cc1ccccc1)C2 [Example 24, N-(7-benzyl-5,6,7,8-tetrahydroimidazo[1,5-a]pyrazin-3-yl)-N-(3-hydroxyphenyl)propionamide] | 124
3 | Oc1cccc(Nc2ncc3n2CCN(CCc2ccccc2)C3)c1 [Example 34, 3-(7-phenethyl-5,6,7,8-tetrahydroimidazo[1,5-a]pyrazin-3-ylamino)phenol] | 168
4 | Fc1ccc(Nc2ncc3n2CCN(Cc2ccc(F)cn2)C3)cc1 [Example 37, N-(4-fluorophenyl)-7-((5-fluoropyridin-2-yl)methyl)-5,6,7,8-tetrahydroimidazo[1,5-a]pyrazin-3-amine] | 293
5 | c1ccc(Nc2ncc3n2CCN(CC2CCOCC2)C3)cc1 [Example 12, N-phenyl-7-((tetrahydro-2H-pyran-4-yl)methyl)-5,6,7,8-tetrahydroimidazo[1,5-a]pyrazin-3-amine] | 258
6 | CCC(=O)N(c1cccc(O)c1)c1ncc2n1CCN(CCc1ccccc1)C2 [Example 25, N-(3-hydroxyphenyl)-N-(7-phenethyl-5,6,7,8-tetrahydroimidazo[1,5-a]pyrazin-3-yl)propionamide] | 358
7 | COc1ccc(CN2CCn3c(cnc3Nc3ccc(F)cc3)C2)cn1 [Example 39, N-(4-fluorophenyl)-7-((6-methoxypyridin-3-yl)methyl)-5,6,7,8-tetrahydroimidazo[1,5-a]pyrazin-3-amine] | 373
8 | Fc1c(Cl)cccc1Nc1ncc2n1CCN(Cc1ccccc1)C2 [Example 9, 7-benzyl-N-(3-chloro-2-fluorophenyl)-5,6,7,8-tetrahydroimidazo[1,5-a]pyrazin-3-amine] | 232
9 | CCNC(=O)Nc1ncc2n1CCN(CC1CCCCC1)C2 [Example 2, 1-(7-(Cyclohexylmethyl)-5,6,7,8-tetrahydroimidazo[1,5-a]pyrazin-3-yl)-3-ethylurea] | 106
10 | COc1cccc(Nc2ncc3n2CCCN(CC2CCOCC2)C3)c1 [Example 15, N-(3-methoxyphenyl)-8-((tetrahydro-2H-pyran-4-yl)methyl)-6,7,8,9-tetrahydro-5H-imidazo[1,5-a][1,4]diazepin-3-amine] | 266
11 | Fc1ccc(Nc2ncc3n2CCCN(CC2CCOCC2)C3)cc1 [Example 16, N-(4-fluorophenyl)-8-((tetrahydro-2H-pyran-4-yl)methyl)-6,7,8,9-tetrahydro-5H-imidazo[1,5-a][1,4]diazepin-3-amine] | 175
12 | CCNC(=O)Nc1ncc2n1CCCN(CC1CCCCC1)C2 [Example 1, 1-(8-(Cyclohexylmethyl)-6,7,8,9-tetrahydro-5H-imidazo[1,5-a][1,4]diazepin-3-yl)-3-ethylurea] | 179

Stronger by Ki, values ahead:

Row | Ki [nM] | Compound
13 | 101 | c1ccc(CCN2CCn3c(cnc3Nc3ccccc3)C2)cc1 [Example 31, 7-Phenethyl-N-phenyl-5,6,7,8-tetrahydroimidazo[1,5-a]pyrazin-3-amine]
14 | 71 | CCCNC(=O)Nc1ncc2n1CCN(CC1CCCCC1)C2 [Example 3, 1-(7-(Cyclohexylmethyl)-5,6,7,8-tetrahydroimidazo[1,5-a]pyrazin-3-yl)-3-propylurea]
15 | 68 | Fc1ccc(Nc2ncc3n2CCN(C2CCCCC2)C3)cc1 [Example 40, 7-cyclohexyl-N-(4-fluorophenyl)-5,6,7,8-tetrahydroimidazo[1,5-a]pyrazin-3-amine]
16 | 67 | Fc1ccc(CN2CCn3c(cnc3Nc3ccc(F)cn3)C2)cc1 [Example 20, 7-(4-fluorobenzyl)-N-(5-fluoropyridin-2-yl)-5,6,7,8-tetrahydroimidazo[1,5-a]pyrazin-3-amine]
17 | 63 | Oc1cccc(Nc2ncc3n2CCN(Cc2ccccc2)C3)c1 [Example 19, 3-(7-benzyl-5,6,7,8-tetrahydroimidazo[1,5-a]pyrazin-3-ylamino)phenol]
18 | 44 | Fc1ccc(Nc2ncc3n2CCN(Cc2ccccc2)C3)cc1 [Example 21, 7-benzyl-N-(4-fluorophenyl)-5,6,7,8-tetrahydroimidazo[1,5-a]pyrazin-3-amine]
19 | 39 | c1ccc(Cc2ncc3n2CCN(CC2CCCCC2)C3)cc1 [Example 28, 3-Benzyl-7-(cyclohexylmethyl)-5,6,7,8-tetrahydroimidazo[1,5-a]pyrazine trifluoroacetate]
20 | 38 | c1ccc(CNc2ncc3n2CCN(CC2CCCCC2)C3)cc1 [Example 27, N-Benzyl-7-(cyclohexylmethyl)-5,6,7,8-tetrahydroimidazo[1,5-a]pyrazin-3-amine]
21 | 37 | Fc1ccc(Nc2ncc3n2CCN(Cc2ccc(F)cc2F)C3)cc1 [Example 35, 7-(2,4-difluorobenzyl)-N-(4-fluorophenyl)-5,6,7,8-tetrahydroimidazo[1,5-a]pyrazin-3-amine]
22 | 26 | Fc1cc(F)cc(Nc2ncc3n2CCCN(CC2CCOCC2)C3)c1 [Example 18, N-(3,5-difluorophenyl)-8-((tetrahydro-2H-pyran-4-yl)methyl)-6,7,8,9-tetrahydro-5H-imidazo[1,5-a][1,4]diazepin-3-amine]
23 | 22 | Fc1ccc(Cc2ncc3n2CCN(CC2CCCCC2)C3)cc1 [Example 30, 7-(cyclohexylmethyl)-3-(4-fluorobenzyl)-5,6,7,8-tetrahydroimidazo[1,5-a]pyrazine hydrochloride]
24 | 21 | Fc1ccc(Nc2ncc3n2CCN(CC2CCC(F)(F)CC2)C3)cc1 [Example 36, 7-((4,4-difluorocyclohexyl)methyl)-N-(4-fluorophenyl)-5,6,7,8-tetrahydroimidazo[1,5-a]pyrazin-3-amine]
25 | 14 | Fc1c(Cl)cccc1Nc1ncc2n1CCCN(CC1CCOCC1)C2 [Example 17, N-(3-chloro-2-fluorophenyl)-8-((tetrahydro-2H-pyran-4-yl)methyl)-6,7,8,9-tetrahydro-5H-imidazo[1,5-a][1,4]diazepin-3-amine]
26 | 13 | COc1cccc(Nc2ncc3n2CCN(CC2CCCCC2)C3)c1 [Example 7, 7-(cyclohexylmethyl)-N-(3-methoxyphenyl)-5,6,7,8-tetrahydroimidazo[1,5-a]pyrazin-3-amine]
27 | 12 | Fc1cc(F)cc(Nc2ncc3n2CCN(CC2CCCCC2)C3)c1 [Example 6, 7-(cyclohexylmethyl)-N-(3,5-difluorophenyl)-5,6,7,8-tetrahydroimidazo[1,5-a]pyrazin-3-amine]
28 | 8.2 | c1ccc(Nc2ncc3n2CCN(CC2CCCCC2)C3)cc1 [Example 5, 7-(Cyclohexylmethyl)-N-phenyl-5,6,7,8-tetrahydroimidazo[1,5-a]pyrazin-3-amine]
29 | 8 | Fc1ccc(Nc2ncc3n2CCN(CC2CCCCC2)C3)cc1 [Example 8, 7-(cyclohexylmethyl)-N-(4-fluorophenyl)-5,6,7,8-tetrahydroimidazo[1,5-a]pyrazin-3-amine]
